Test results as given in PubChem BioAssay (NCI).
Values after ≈ are worked out from the molar mass of the structure shown.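 Assay format: 96-well plates, 48-hour exposure. At the GI50, growth is halved. TGI: concentration producing complete growth inhibition.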 Peptide text beside a SMILES is read from it.

Assays:
Assay in all cases: NCI-60 cell line screen, 48 h
HS 578T breast = system: HS 578T breast
UACC-62 melanoma = system: UACC-62 melanoma
CCRF-CEM leukemia = system: CCRF-CEM leukemia
KM12 colon = system: KM12 colon
MOLT-4 leukemia = system: MOLT-4 leukemia
HOP-62 NSCLC = system: HOP-62 NSCLC
HOP-92 NSCLC = system: HOP-92 NSCLC
HT29 colon = system: HT29 colon
OVCAR-8 ovarian = system: OVCAR-8 ovarian
TK-10 renal = system: TK-10 renal
SF-268 CNS = system: SF-268 CNS
EKVX NSCLC = system: EKVX NSCLC
HCT-116 colon = system: HCT-116 colon
MALME-3M melanoma = system: MALME-3M melanoma
K-562 leukemia = system: K-562 leukemia
OVCAR-3 ovarian = system: OVCAR-3 ovarian
SNB-19 CNS = system: SNB-19 CNS
SNB-75 CNS = system: SNB-75 CNS
ACHN renal = system: ACHN renal
SF-295 CNS = system: SF-295 CNS
MCF7 breast = system: MCF7 breast
UACC-257 melanoma = system: UACC-257 melanoma
IGROV1 ovarian = system: IGROV1 ovarian
T-47D breast = system: T-47D breast
HCC-2998 colon = system: HCC-2998 colon
LOX IMVI melanoma = system: LOX IMVI melanoma
NCI-H23 lung = system: NCI-H23 lung
MDA-MB-231 breast = system: MDA-MB-231 breast
SK-MEL-28 melanoma = system: SK-MEL-28 melanoma
BT-549 breast = system: BT-549 breast
SF-539 CNS = system: SF-539 CNS
COLO 205 colon = system: COLO 205 colon
CAKI-1 renal = system: CAKI-1 renal
OVCAR-5 ovarian = system: OVCAR-5 ovarian
SK-OV-3 ovarian = system: SK-OV-3 ovarian
NCI-H226 lung = system: NCI-H226 lung
SW-620 colon = system: SW-620 colon
U251 CNS = system: U251 CNS
SK-MEL-5 melanoma = system: SK-MEL-5 melanoma
MDA-MB-435 = system: MDA-MB-435
RXF 393 renal = system: RXF 393 renal
M14 melanoma = system: M14 melanoma
A549 NSCLC = system: A549 NSCLC
NCI-H460 lung = system: NCI-H460 lung
SK-MEL-2 melanoma = system: SK-MEL-2 melanoma
SN12C renal = system: SN12C renal
OVCAR-4 ovarian = system: OVCAR-4 ovarian
A498 renal = system: A498 renal
HCT-15 colon = system: HCT-15 colon
PC-3 prostate = system: PC-3 prostate
UO-31 renal = system: UO-31 renal
786-0 renal = system: 786-0 renal
HL-60(TB) leukemia = system: HL-60(TB) leukemia
NCI/ADR-RES ovarian = system: NCI/ADR-RES ovarian
DU-145 prostate = system: DU-145 prostate
NCI-H522 lung = system: NCI-H522 lung
SR leukemia = system: SR leukemia

CCOC(=O)CNC(=O)C(Cc1ccccc1)NC(=O)C(N)CC(=O)O (stereo not drawn) (H-Asp-Phe-Gly-OEt; configuration not given here)
GI50 (HS 578T breast): 9.31 µg/mL (≈ 25.5 µM)
GI50 (UACC-62 melanoma): 30.3 µg/mL (≈ 82.9 µM)
GI50 (CCRF-CEM leukemia): 85.2 µg/mL (≈ 233 µM)
GI50 (KM12 colon): 0.194 µg/mL (≈ 0.532 µM)
GI50 (MOLT-4 leukemia): 23.7 µg/mL (≈ 64.9 µM)

Cc1ccc([N+](=O)[O-])c2c(NCCC[N+](C)(C)[O-])c3ccccc3nc12
TGI (HOP-62 NSCLC): > 41.1 µM
TGI (HOP-92 NSCLC): 5.04 µM
TGI (HT29 colon): 5.26 µM
TGI (OVCAR-8 ovarian): 49.1 µM
TGI (TK-10 renal): 80.5 µM
TGI (SF-268 CNS): 24.9 µM
TGI (EKVX NSCLC): 3.88 µM
TGI (HCT-116 colon): 5 µM
TGI (MALME-3M melanoma): 2.78 µM
TGI (K-562 leukemia): > 38.3 µM
TGI (OVCAR-3 ovarian): > 41.3 µM
TGI (SNB-19 CNS): 6.56 µM
TGI (SNB-75 CNS): 2.49 µM
TGI (HS 578T breast): 21.7 µM
TGI (ACHN renal): 47.7 µM
TGI (UACC-62 melanoma): 3.4 µM
TGI (SF-295 CNS): > 100 µM
TGI (MCF7 breast): 7.66 µM
TGI (UACC-257 melanoma): 6.11 µM
TGI (IGROV1 ovarian): > 23.9 µM
TGI (T-47D breast): 7 µM
TGI (HCC-2998 colon): 2.55 µM
TGI (LOX IMVI melanoma): 9.2 µM
TGI (NCI-H23 lung): 3.41 µM
TGI (MDA-MB-231 breast): 6.28 µM
TGI (SK-MEL-28 melanoma): 17 µM
TGI (CCRF-CEM leukemia): > 30.8 µM
TGI (BT-549 breast): 4.81 µM
TGI (SF-539 CNS): 9.76 µM
TGI (COLO 205 colon): 2.56 µM
TGI (CAKI-1 renal): 97 µM
TGI (OVCAR-5 ovarian): 10.2 µM
TGI (SK-OV-3 ovarian): > 100 µM
TGI (NCI-H226 lung): 5.17 µM
TGI (SW-620 colon): > 72.6 µM
TGI (U251 CNS): 7.32 µM
TGI (SK-MEL-5 melanoma): 2.46 µM
TGI (KM12 colon): > 21.1 µM
TGI (MDA-MB-435): 5.15 µM
TGI (RXF 393 renal): 3.02 µM
TGI (M14 melanoma): 7.42 µM
TGI (A549 NSCLC): 6.29 µM
TGI (NCI-H460 lung): 5.14 µM
TGI (SK-MEL-2 melanoma): 2.25 µM
TGI (SN12C renal): 8.74 µM
TGI (OVCAR-4 ovarian): 21.2 µM
TGI (A498 renal): 4.84 µM
TGI (HCT-15 colon): 33 µM
TGI (PC-3 prostate): 4.41 µM
TGI (UO-31 renal): 42.6 µM
TGI (786-0 renal): 6.72 µM
TGI (HL-60(TB) leukemia): 34.5 µM
TGI (NCI/ADR-RES ovarian): > 100 µM
TGI (DU-145 prostate): 8.19 µM

Oc1c(N2CCOCC2)cc(-c2cc(N3CCOCC3)c(O)c3ccccc23)c2ccccc12
TGI (HT29 colon): 5.26 µM
TGI (TK-10 renal): 28.9 µM
TGI (SF-268 CNS): 17.8 µM
TGI (EKVX NSCLC): 41.6 µM
TGI (K-562 leukemia): 6.64 µM
TGI (OVCAR-3 ovarian): 15.6 µM
TGI (SNB-19 CNS): 16.6 µM
TGI (HS 578T breast): > 100 µM
TGI (NCI-H522 lung): 4.89 µM
TGI (ACHN renal): 11 µM
TGI (UACC-62 melanoma): 5.73 µM
TGI (UACC-257 melanoma): 5.11 µM
TGI (IGROV1 ovarian): 7.16 µM
TGI (T-47D breast): 62.1 µM
TGI (HCC-2998 colon): 5.78 µM
TGI (LOX IMVI melanoma): 7.09 µM
TGI (NCI-H23 lung): 6.13 µM
TGI (SR leukemia): 2.29 µM
TGI (MDA-MB-231 breast): > 100 µM
TGI (CAKI-1 renal): 13.8 µM
TGI (OVCAR-5 ovarian): 7.25 µM
TGI (SK-OV-3 ovarian): 51.9 µM
TGI (NCI-H226 lung): 59.8 µM
TGI (SW-620 colon): 6.34 µM
TGI (U251 CNS): 3.34 µM
TGI (SK-MEL-5 melanoma): 3.35 µM
TGI (KM12 colon): 25.4 µM
TGI (RXF 393 renal): 6.03 µM
TGI (NCI-H460 lung): 11.4 µM
TGI (SK-MEL-2 melanoma): 8.29 µM
TGI (HCT-15 colon): 6.38 µM
TGI (PC-3 prostate): 14.6 µM
TGI (UO-31 renal): 4.66 µM
TGI (NCI/ADR-RES ovarian): 15.6 µM
